How the values were obtained:
Assay type in all cases: functional
Escherichia coli = assay: Antimicrobial activity against Escherichia coli assessed per disk
Pseudomonas aeruginosa = assay: Antimicrobial activity against Pseudomonas aeruginosa assessed per disk
Candida albicans = assay: Antimicrobial activity against Candida albicans assessed per disk
[1] = test system: Trichophyton mentagrophytes; assay: Antimicrobial activity against Trichophyton mentagrophytes assessed per disk
CCRF-CEM = assay: Growth inhibition of human CCRF-CEM cells
K562 = assay: Growth inhibition of human K562 cells
MOLT-4 = assay: Growth inhibition of human MOLT4 cells
[2] = Growth inhibition of human […] cells
A549 = assay: Growth inhibition of human A549 cells
HOP-62 = assay: Growth inhibition of human HOP62 cells
HOP-92 = assay: Growth inhibition of human HOP92 cells
NCI-H226 = assay: Growth inhibition of human NCI-H226 cells
NCI-H322M = assay: Growth inhibition of human NCI-H322M cells
NCI-H460 = assay: Growth inhibition of human NCI-H460 cells
NCI-H522 = assay: Growth inhibition of human NCI-H522 cells
COLO 205 = assay: Growth inhibition of human COLO205 cells
HCT-116 = assay: Growth inhibition of human HCT116 cells
KM12 = assay: Growth inhibition of human KM12 cells
SF-295 = assay: Growth inhibition of human SF295 cells
SF-539 = assay: Growth inhibition of human SF539 cells
SNB-19 = assay: Growth inhibition of human SNB19 cells
SNB-75 = assay: Growth inhibition of human SNB75 cells
Malme-3M = assay: Growth inhibition of human MALME-3M cells
M14 = assay: Growth inhibition of human M14 cells
SK-MEL-28 = assay: Growth inhibition of human SK-MEL-28 cells
SK-MEL-5 = assay: Growth inhibition of human SK-MEL-5 cells
UACC-257 = assay: Growth inhibition of human UACC257 cells
UACC-62 = assay: Growth inhibition of human UACC62 cells
IGROV-1 = assay: Growth inhibition of human IGROV1 cells
OVCAR-3 = assay: Growth inhibition of human OVCAR-3 cells
OVCAR-4 = assay: Growth inhibition of human OVCAR4 cells
OVCAR-5 = assay: Growth inhibition of human OVCAR5 cells
SK-OV-3 = assay: Growth inhibition of human SKOV3 cells
786-0 = assay: Growth inhibition of human 786-0 cells
ACHN = assay: Growth inhibition of human ACHN cells
CAKI-1 = assay: Growth inhibition of human Caki1 cells
RXF 393 = assay: Growth inhibition of human RXF393 cells
TK-10 = assay: Growth inhibition of human TK10 cells
DU-145 = assay: Growth inhibition of human DU145 cells
MCF7 = assay: Growth inhibition of human MCF7 cells
MDA-MB-231 = assay: Growth inhibition of human MDA-MB-231 cells
[3] = Growth inhibition of human Hs 578T cells
MDA-MB-435 = assay: Growth inhibition of human MDA-MB-435 cells
MDA-N = assay: Growth inhibition of human MDA-N cells
BT-549 = assay: Growth inhibition of human BT549 cells
T47D = assay: Growth inhibition of human T47D cells
[4] = read-out: LC50 (the source's name)

In the case of `COc1cn2c(cc1=O)C(=O)c1ccnc(CC(C)C)c1-2` [PTEROCELLIN A], the MIC (Escherichia coli) is reported as over 60 µg, the MIC (Pseudomonas aeruginosa) is reported as over 60 µg and the MIC (Candida albicans) is reported as over 60 µg. For the same molecule, the MIC [1] was 3.9 µg, the GI50 (CCRF-CEM) was 0.05 µM and the TGI (CCRF-CEM) was 0.8 µM. For the same molecule, the CC50 (CCRF-CEM; [4]) was over 100 µM, the GI50 (K562) was 3 µM and the LC50 (concentration killing 50% of cells) (K562) was over 100 µM. For the same molecule, the TGI (K562) was over 100 µM, the GI50 (MOLT-4) was 3.5 µM and the LC50 (concentration killing 50% of cells) (MOLT-4) was over 100 µM. The TGI (MOLT-4) was over 100 µM, the GI50 [2] was 1.7 µM and the TGI [2] was 4.2 µM. For the same molecule, the CC50 [2, 4] was over 100 µM, the GI50 (A549) was 1.3 µM and the LC50 (50% cell kill concentration) (A549) was over 100 µM. It also gave a TGI (A549) of 5.1 µM, a GI50 (HOP-62) of 1.7 µM and a TGI (HOP-62) of 3.1 µM. The CC50 (HOP-62; [4]) was 5.6 µM, the GI50 (HOP-92) was 2.2 µM and the TGI (HOP-92) was 4.9 µM. The CC50 (HOP-92; [4]) was 14.1 µM, the GI50 (NCI-H226) was 1.7 µM and the TGI (NCI-H226) was 3.5 µM. For the same molecule, the CC50 (NCI-H226; [4]) was 7.4 µM, the GI50 (NCI-H322M) was 1.6 µM and the LC50 (concentration killing 50% of cells) (NCI-H322M) was 5.6 µM. For the same molecule, the TGI (NCI-H322M) was 3 µM, the GI50 (NCI-H460) was 0.8 µM and the LC50 (concentration causing 50% cell kill) (NCI-H460) was 7.1 µM. For the same molecule, the TGI (NCI-H460) was 2.6 µM, the GI50 (NCI-H522) was 1.7 µM and the TGI (NCI-H522) was 3.3 µM. The CC50 (NCI-H522; [4]) was 6.5 µM, the GI50 (COLO 205) was 1.6 µM and the TGI (COLO 205) was 3.7 µM. The CC50 (COLO 205; [4]) was 8.4 µM, the GI50 (HCT-116) was 1.1 µM and the LC50 (HCT-116) was 11.2 µM. For the same molecule, the TGI (HCT-116) was 2.5 µM, the GI50 (KM12) was 1.6 µM and the TGI (KM12) was 3.4 µM. The CC50 (KM12; [4]) was 7.3 µM, the GI50 (SF-295) was 1.3 µM and the LC50 (concentration killing 50% of starting cells) (SF-295) was 5.2 µM. For the same molecule, the TGI (SF-295) was 2.6 µM, the GI50 (SF-539) was 1.8 µM and the TGI (SF-539) was 3.6 µM. The CC50 (SF-539; [4]) was 7.1 µM, the GI50 (SNB-19) was 2.9 µM and the TGI (SNB-19) was 11.4 µM. It also gave a CC50 (SNB-19; [4]) of 60 µM, a GI50 (SNB-75) of 1.4 µM and a TGI (SNB-75) of 3.9 µM. It also gave a CC50 (SNB-75; [4]) of 56.8 µM, a GI50 (Malme-3M) of 0.1 µM and a TGI (Malme-3M) of 0.3 µM. It also gave a CC50 (Malme-3M; [4]) of 0.8 µM, a GI50 (M14) of 0.2 µM and an LC50 (concentration killing 50% of cells) (M14) of 4.6 µM. It also gave a TGI (M14) of 0.8 µM, a GI50 (SK-MEL-28) of 1.9 µM and a TGI (SK-MEL-28) of 4.2 µM. It also gave a CC50 (SK-MEL-28; [4]) of 9.3 µM, a GI50 (SK-MEL-5) of 0.2 µM and a TGI (SK-MEL-5) of 0.3 µM. It also gave a CC50 (SK-MEL-5; [4]) of 0.6 µM, a GI50 (UACC-257) of 1.1 µM and a TGI (UACC-257) of 3 µM. It also gave a CC50 (UACC-257; [4]) of 7.9 µM, a GI50 (UACC-62) of 1.4 µM and an LC50 (50% cell kill) (UACC-62) of 6 µM. The TGI (UACC-62) was 2.9 µM, the GI50 (IGROV-1) was 2.1 µM and the TGI (IGROV-1) was 5.4 µM. It also gave a CC50 (IGROV-1; [4]) of 18.4 µM, a GI50 (OVCAR-3) of 1.5 µM and a TGI (OVCAR-3) of 4.6 µM. It also gave a CC50 (OVCAR-3; [4]) of 19.3 µM, a GI50 (OVCAR-4) of 1.7 µM and an LC50 (OVCAR-4) of 7.6 µM. It also gave a TGI (OVCAR-4) of 3.6 µM, a GI50 (OVCAR-5) of 2 µM and a TGI (OVCAR-5) of 3.4 µM. For the same molecule, the CC50 (OVCAR-5; [4]) was 5.6 µM, the GI50 (SK-OV-3) was 6.1 µM and the TGI (SK-OV-3) was 21.9 µM. For the same molecule, the CC50 (SK-OV-3; [4]) was 59.2 µM, the GI50 (786-0) was 1.3 µM and the LC50 (concentration killing 50% of cells) (786-0) was 24.4 µM. For the same molecule, the TGI (786-0) was 4.7 µM, the GI50 (ACHN) was 2.3 µM and the TGI (ACHN) was 9.1 µM. It also gave a CC50 (ACHN; [4]) of over 100 µM, a GI50 (CAKI-1) of 2.1 µM and a TGI (CAKI-1) of 4.6 µM. For the same molecule, the CC50 (CAKI-1; [4]) was 11.1 µM, the GI50 (RXF 393) was 3.2 µM and the LC50 (RXF 393) was 46.6 µM. For the same molecule, the TGI (RXF 393) was 12.3 µM, the GI50 (TK-10) was 3.1 µM and the TGI (TK-10) was 6.8 µM. It also gave a CC50 (TK-10; [4]) of 23.1 µM, a GI50 (DU-145) of 0.7 µM and a TGI (DU-145) of 2 µM. For the same molecule, the CC50 (DU-145; [4]) was 4.7 µM, the GI50 (MCF7) was 1.5 µM and the TGI (MCF7) was 4.9 µM. The CC50 (MCF7; [4]) was over 100 µM, the GI50 (MDA-MB-231) was 2.6 µM and the TGI (MDA-MB-231) was 14.1 µM. The CC50 (MDA-MB-231; [4]) was 51.7 µM, the GI50 [3] was 6.3 µM and the TGI [3] was over 100 µM. The CC50 [3, 4] was over 100 µM, the GI50 (MDA-MB-435) was 0.2 µM and the TGI (MDA-MB-435) was 0.3 µM. The CC50 (MDA-MB-435; [4]) was 0.6 µM, the GI50 (MDA-N) was 0.2 µM and the TGI (MDA-N) was 0.4 µM. For the same molecule, the CC50 (MDA-N; [4]) was 0.6 µM, the GI50 (BT-549) was 1.7 µM and the TGI (BT-549) was 4 µM. It also gave a CC50 (BT-549; [4]) of 9.3 µM, a GI50 (T47D) of 1.8 µM and a TGI (T47D) of 6.5 µM. The CC50 (T47D; [4]) was over 100 µM.
